Laboratory results from patent publication US10653756B2, “Identification of CD8+ T cells that are CD161hi and/or IL18R(α)hi and have rapid drug efflux capacity” (FRED HUTCHINSON CANCER RESEARCH CENTER, priority 2008, dated 2020).
Values belong to the compound of their own block, whether it stands above or below them.

Columns and labels:
[1] = tested on: CMhi and EMhi CD8+ T cells; experiment: Daunorubicin-induced apoptosis of sorted CM and EM subsets, Annexin V/DAPI; assay type: cell-based, human
From the text: CMhi and EMhi and their non-effluxing IL-18Rα^lo/neg counterparts (CMlo and EMlo) were isolated using negative immunomagnetic selection of CD8^+ T cells with biotinylated antibodies to non-CD8^+ T cells, followed by surface labeling with fluorochrome-conjugated streptavidin to identify non-CD8^+ T cells, CD95, CD62L and IL-18Rα and sorting on a BD FacsARIA flow sorter. CM and EM CD8^+ T cells were defined as streptavidin^−/CD95^+/CD62L^+ or streptavidin^−/CD95^+/CD62L^−, respectively. CMhi and EMhi were defined by high expression of IL-18Rα. Effluxing and non-effluxing CM and EM subsets were cultured for 44 hours in the presence or absence of daunorubicin (an anthracycline chemotherapeutic agent, effluxed by the ABC-B1 cotransporter, MDR-1), with or without MDR-1 blockade with the peripheral benzodiazepine receptor antagonist, PK11195. Cultures were harvested, washed twice with cold PBS and stained with Annexin V and DAPI before analysis.

[2] = tested on: CM and EM CD8+ T lymphocytes; experiment: Rh123 efflux assay with or without vinblastine, flow cytometry; assay type: cell-based, human; settings: PBMC loaded with 10 μg/ml Rh123, efflux 30 minutes at 37° C.
Procedure: PBMC were separated from fresh peripheral blood by density gradient centrifugation, washed in RPMI 1640/10% bovine serum albumin (herein known as efflux buffer) and resuspended at 1×10^6/ml in ice cold efflux buffer with 10 μg/ml Rh123. PBMC were incubated for 30 minutes on ice before washing three times in ice cold efflux buffer and resuspending in pre-warmed efflux buffer, with or without vinblastine, for 30 minutes at 37° C. At 30 minutes, PBMC were washed once in ice cold PBS/0.2% BSA (FACS buffer) and labeled with antibodies to CD4, CD16, TCRγδ, Vα24, CD3, CD8α, CD95, CD62L, CD161 and IL-18Rα for 20 minutes on ice. After washing in ice cold FACS buffer, samples were analyzed on a BD FacsARIA flow cytometer.
CM and EM subsets were identified as CD62L^+ or CD62L^− events, respectively, in the CD4^−/CD16^−/TCRγδ^−/Vα24^−/CD3^+/CD8^+/CD95^+ population. Rh123 fluorescence was identified with appropriate compensation and a 530/30 emission filter after laser excitation at 488 nm. Rh123-effluxing events were defined as those with fluorescence lower than the mean fluorescence intensity identified after culture in the presence of vinblastine efflux blockade.

MDR-1 = MDR-1 (Homo sapiens, UniProt P08183); settings: daunorubicin loaded at 2.5 μM, efflux 1 hour at 37° C.; vinblastine 25 μM; PK11195 and cyclosporine A data not shown
Chain of MDR-1 (P08183 whole entry): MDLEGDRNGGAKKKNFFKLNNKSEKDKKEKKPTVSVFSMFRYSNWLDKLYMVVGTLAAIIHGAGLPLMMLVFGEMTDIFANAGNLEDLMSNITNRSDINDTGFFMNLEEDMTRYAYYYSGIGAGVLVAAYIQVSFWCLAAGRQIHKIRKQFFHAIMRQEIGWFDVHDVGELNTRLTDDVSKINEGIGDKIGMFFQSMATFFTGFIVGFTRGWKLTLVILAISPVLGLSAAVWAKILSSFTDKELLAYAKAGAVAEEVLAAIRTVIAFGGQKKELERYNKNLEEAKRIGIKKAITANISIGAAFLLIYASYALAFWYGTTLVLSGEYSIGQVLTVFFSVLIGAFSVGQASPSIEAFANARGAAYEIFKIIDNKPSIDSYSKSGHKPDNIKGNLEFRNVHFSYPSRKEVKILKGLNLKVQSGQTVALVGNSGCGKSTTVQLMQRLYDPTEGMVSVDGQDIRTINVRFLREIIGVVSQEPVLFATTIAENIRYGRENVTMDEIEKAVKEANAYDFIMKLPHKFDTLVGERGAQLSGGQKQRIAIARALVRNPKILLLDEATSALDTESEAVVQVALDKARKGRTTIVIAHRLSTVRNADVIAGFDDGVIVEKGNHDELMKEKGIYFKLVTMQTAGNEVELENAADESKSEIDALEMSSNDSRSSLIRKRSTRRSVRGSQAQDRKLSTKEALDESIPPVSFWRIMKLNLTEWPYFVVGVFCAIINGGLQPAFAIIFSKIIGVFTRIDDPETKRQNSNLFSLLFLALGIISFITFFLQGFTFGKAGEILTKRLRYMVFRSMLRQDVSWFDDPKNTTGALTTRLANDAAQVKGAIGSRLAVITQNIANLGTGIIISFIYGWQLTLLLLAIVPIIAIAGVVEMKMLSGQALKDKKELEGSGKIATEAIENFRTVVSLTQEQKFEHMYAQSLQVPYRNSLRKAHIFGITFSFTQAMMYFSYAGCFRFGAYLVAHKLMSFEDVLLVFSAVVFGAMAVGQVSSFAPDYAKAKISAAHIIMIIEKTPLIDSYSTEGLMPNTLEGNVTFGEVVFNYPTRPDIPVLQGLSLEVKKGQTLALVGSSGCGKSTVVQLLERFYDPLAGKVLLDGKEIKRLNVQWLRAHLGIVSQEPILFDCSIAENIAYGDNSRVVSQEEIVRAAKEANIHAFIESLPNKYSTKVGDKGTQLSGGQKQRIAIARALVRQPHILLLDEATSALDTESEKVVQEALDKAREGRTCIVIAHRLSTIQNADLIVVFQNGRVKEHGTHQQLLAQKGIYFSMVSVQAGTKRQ

SMILES: CCC(C)N(C)C(=O)c1cc2ccccc2c(-c2ccccc2Cl)n1 (centres unmarked) [PK11195]
Viability of subsets cultured with PK11195 alone ([1]; PK11195 without daunorubicin, 44 hours culture): does not impair viability
Cell death of CMhi and EMhi on MDR-1 inhibition during daunorubicin culture ([1]; daunorubicin with PK11195, 44 hours culture): increased cell death

SMILES: COc1cccc2c1C(=O)c1c(O)c3c(c(O)c1C2=O)C[C@@](O)(C(C)=O)C[C@@H]3O[C@H]1C[C@H](N)[C@H](O)[C@H](C)O1 [daunorubicin]
Apoptosis of CMhi and EMhi induced by culture with daunorubicin ([1]; daunorubicin 0.1 uM, 44 hours culture): resistant to apoptosis

Inhibition of daunorubicin efflux from CMhi and EMhi (MDR-1): inhibition of efflux
SMILES: CC[C@]1(O)C[C@@H]2CN(CCc3c([nH]c4ccccc34)[C@@](C(=O)OC)(c3cc4c(cc3OC)N(C)[C@H]3[C@@](O)(C(=O)OC)[C@H](OC(C)=O)[C@]5(CC)C=CCN6CC[C@]43[C@@H]65)C2)C1 [vinblastine]
Rh123 efflux in the presence of vinblastine [2]: blocked
